# PubChem BioAssay (NCI)
# “And” between values parts separate entries of the source, which are not always exact repeats. Identical values can stand only once.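 Values below derive from 48-hour exposures of cells grown in 96-well plates, with endpoints linearly interpolated between the two concentrations bracketing the appropriate inhibition level. At the GI50, growth is halved. TGI denotes the concentration required for complete inhibition of growth.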 Where a SMILES comes first, the peptide text is derived from it. The star is where a group is joined. Boc = CC(C)(C)OC(=O)*
# System: MALME-3M melanoma
# Assay: growth of human tumour cells (NCI), 48 h
row,SMILES,TGI
1,COC(=O)C(C)NC(=O)C(CCSC)NC(=O)C(Cc1ccccc1)NC(=O)OC(C)(C)C (stereo not drawn) (Boc-Phe-Met-Ala-OMe; configuration not given here),> 100 µM

# System: MCF7 breast
# Assay: growth of human tumour cells (NCI), 48 h
SMILES,GI50,TGI
Cn1c(Nc2ccc(C(F)(F)F)cc2)nc2cc(Oc3ccnc(-c4ncc(C(F)(F)F)[nH]4)c3)ccc21,3.38 µM,14.4 µM
C[C@@]12CCC[C@@](C)(C(=O)O)C1CC[C@]13CC(=O)[C@](CO)(C1)[C@@H](O)CC32 (some centres not stated),> 100 µM,> 100 µM
O=[N+]([O-])c1ccc(CI)cc1,3.08 µM,17.2 µM
CN(C)C/C=C/C(=O)Nc1cc2c(Nc3ccc(F)c(Cl)c3)ncnc2cc1O[C@H]1CCOC1,2.23 µM and 2.12 µM,9.14 µM and > 10 µM
COc1cc(/C=C/C(=O)c2cccc(-n3cc(-c4ccc(Cl)cc4)[nH]c3=O)c2)ccc1O,1.44 µM,7.98 µM
CCN(Cc1ccc(F)cc1)c1ccc(CO)c(Br)c1,0.15 µM,16.1 µM
COc1ccc(-c2cc(/C=C/C(=O)c3ccc(OC)c(OC)c3)[nH]n2)cc1,0.417 µM,1.76 µM
Oc1ccc(Nc2c3ccccc3nc3occ(Cl)c23)cc1,3.38 µM,11.3 µM
CC1(Br)Cc2ccccc2C1=O (configuration not stated),2.22 µM,8.52 µM
CN(C)C(=S)Sc1ccc([N+](=O)[O-])cc1[N+](=O)[O-],0.777 µM,5.03 µM
CCOC(=O)/C=C/c1ccc(C#Cc2ccccc2)cc1,> 100 µM,> 100 µM
COc1ccc(C(O)(CCC(C)C)C(CN2CCOCC2)c2ccc(Cl)cc2)cc1 (configuration not stated),10.4 µM,24.6 µM
COc1cc(/C=C\c2cc(OC)c(OC)c(OC)c2)cc(N/C=C\C(=O)c2cc(OC)c(OC)c(OC)c2)c1OC,2.34 µM,> 100 µM
Cn1c(=O)c(Oc2ccc(F)cc2)cc2cnc(NC3CCOCC3)nc21,> 25 µM,> 25 µM
CC1(C)N=C(N)N=C(N)N1c1ccc(CCCCc2ccc(Cl)c(S(=O)(=O)F)c2)c(Cl)c1,0.529 µM,16.9 µM
Clc1nc(Cl)nc(Nc2cccc3ccccc23)n1,36.3 µM,> 100 µM
Cc1cc2cc3c(=O)[nH]c(=O)[nH]c3nc2cc1C,–,> 100 µM
CC(C)OC(=O)[C@H](C)NP(=O)(OC[C@H]1O[C@@H](n2ccc(=O)[nH]c2=O)[C@](C)(F)[C@@H]1O)Oc1ccccc1 (some centres not stated),> 100 µM,> 100 µM
BrCc1cccc(C[P+](c2ccccc2)(c2ccccc2)c2ccccc2)c1,13.4 µM,> 100 µM
CN(C)c1ncnc2c1ncn2CCn1cnc2c(N(C)C)ncnc21,–,> 100 µM
O=C(O)c1ccc(C(=O)O)c2c(C(=O)O)ccc(C(=O)O)c12,–,> 100 µM
CSc1nc(NC2OC(COC(C)=O)C(OC(C)=O)C(OC(C)=O)C2OC(C)=O)c(N=CC=Nc2c(NC3OC(COC(C)=O)C(OC(C)=O)C(OC(C)=O)C3OC(C)=O)nc(SC)n(C)c2=O)c(=O)n1C (configuration not stated),> 50 µM,> 100 µM
O=S(=O)(Nc1ccc(Cl)cc1Cl)c1ccc(-c2cnc(C3CC3)o2)cc1,0.35 µM,41.2 µM
O=C(/C=C/C=C/c1ccccc1)c1ccccc1,–,42.9 µM
C#Cc1nc(Nc2cc(C)[nH]n2)c2ccccc2n1,0.197 µM,1.67 µM
COC(=O)C(C)NC(=O)C(CCSC)NC(=O)C(Cc1ccccc1)NC(=O)OC(C)(C)C (stereo not drawn) (Boc-Phe-Met-Ala-OMe; configuration not given here),31.7 µg/mL,> 100 µM
Cc1nc2cc(Nc3nc(Nc4ccc(F)cc4)nc(-c4cccs4)n3)ccc2n1Cc1ccccc1,2.15 µM,7.91 µM

# System: HOP-62 NSCLC
# Assay: growth of human tumour cells (NCI), 48 h
SMILES,GI50,TGI
Cn1c(Nc2ccc(C(F)(F)F)cc2)nc2cc(Oc3ccnc(-c4ncc(C(F)(F)F)[nH]4)c3)ccc21,2.85 µM,18.6 µM
C[C@@]12CCC[C@@](C)(C(=O)O)C1CC[C@]13CC(=O)[C@](CO)(C1)[C@@H](O)CC32 (some centres not stated),> 100 µM,> 100 µM
O=[N+]([O-])c1ccc(CI)cc1,3.38 µM,12.5 µM
CN(C)C/C=C/C(=O)Nc1cc2c(Nc3ccc(F)c(Cl)c3)ncnc2cc1O[C@H]1CCOC1,2.49 µM and 3.38 µM,6.86 µM and > 10 µM
COc1cc(/C=C/C(=O)c2cccc(-n3cc(-c4ccc(Cl)cc4)[nH]c3=O)c2)ccc1O,3.87 µM,15 µM
CCN(Cc1ccc(F)cc1)c1ccc(CO)c(Br)c1,0.646 µM,20.2 µM
COc1ccc(-c2cc(/C=C/C(=O)c3ccc(OC)c(OC)c3)[nH]n2)cc1,2.35 µM,6.17 µM
Oc1ccc(Nc2c3ccccc3nc3occ(Cl)c23)cc1,4.37 µM,36.2 µM
CC1(Br)Cc2ccccc2C1=O (configuration not stated),–,29.1 µM
CN(C)C(=S)Sc1ccc([N+](=O)[O-])cc1[N+](=O)[O-],8.26 µM,21.3 µM
CCOC(=O)/C=C/c1ccc(C#Cc2ccccc2)cc1,> 100 µM,> 100 µM
COc1ccc(C(O)(CCC(C)C)C(CN2CCOCC2)c2ccc(Cl)cc2)cc1 (configuration not stated),18.8 µM,37.4 µM
COc1cc(/C=C\c2cc(OC)c(OC)c(OC)c2)cc(N/C=C\C(=O)c2cc(OC)c(OC)c(OC)c2)c1OC,2.46 µM,> 100 µM
Cn1c(=O)c(Oc2ccc(F)cc2)cc2cnc(NC3CCOCC3)nc21,> 25 µM,> 25 µM
CC1(C)N=C(N)N=C(N)N1c1ccc(CCCCc2ccc(Cl)c(S(=O)(=O)F)c2)c(Cl)c1,5.82 µM,> 43.7 µM
Clc1nc(Cl)nc(Nc2cccc3ccccc23)n1,> 100 µM,> 100 µM
Cc1cc2cc3c(=O)[nH]c(=O)[nH]c3nc2cc1C,–,> 100 µM
CC(C)OC(=O)[C@H](C)NP(=O)(OC[C@H]1O[C@@H](n2ccc(=O)[nH]c2=O)[C@](C)(F)[C@@H]1O)Oc1ccccc1 (some centres not stated),> 100 µM,> 100 µM
BrCc1cccc(C[P+](c2ccccc2)(c2ccccc2)c2ccccc2)c1,4.86 µM,> 100 µM
CN(C)c1ncnc2c1ncn2CCn1cnc2c(N(C)C)ncnc21,–,> 100 µM
O=C(O)c1ccc(C(=O)O)c2c(C(=O)O)ccc(C(=O)O)c12,–,> 100 µM
CSc1nc(NC2OC(COC(C)=O)C(OC(C)=O)C(OC(C)=O)C2OC(C)=O)c(N=CC=Nc2c(NC3OC(COC(C)=O)C(OC(C)=O)C(OC(C)=O)C3OC(C)=O)nc(SC)n(C)c2=O)c(=O)n1C (configuration not stated),21.2 µM,50 µM and 29.8 µM
O=S(=O)(Nc1ccc(Cl)cc1Cl)c1ccc(-c2cnc(C3CC3)o2)cc1,0.909 µM,55.4 µM
COC(=O)C(C)NC(=O)C(CCSC)NC(=O)C(Cc1ccccc1)NC(=O)OC(C)(C)C (stereo not drawn) (Boc-Phe-Met-Ala-OMe; configuration not given here),–,> 100 µM
Cc1nc2cc(Nc3nc(Nc4ccc(F)cc4)nc(-c4cccs4)n3)ccc2n1Cc1ccccc1,8.45 µM,> 100 µM

# System: A498 renal
# Assay: growth of human tumour cells (NCI), 48 h
SMILES,GI50,TGI
Cn1c(Nc2ccc(C(F)(F)F)cc2)nc2cc(Oc3ccnc(-c4ncc(C(F)(F)F)[nH]4)c3)ccc21,0.0297 µM,0.851 µM
C[C@@]12CCC[C@@](C)(C(=O)O)C1CC[C@]13CC(=O)[C@](CO)(C1)[C@@H](O)CC32 (some centres not stated),> 100 µM,> 100 µM
O=[N+]([O-])c1ccc(CI)cc1,2.29 µM,9.56 µM
CN(C)C/C=C/C(=O)Nc1cc2c(Nc3ccc(F)c(Cl)c3)ncnc2cc1O[C@H]1CCOC1,0.155 µM and 0.106 µM,2.55 µM and 2.3 µM
COc1cc(/C=C/C(=O)c2cccc(-n3cc(-c4ccc(Cl)cc4)[nH]c3=O)c2)ccc1O,5.78 µM,16.7 µM
CCN(Cc1ccc(F)cc1)c1ccc(CO)c(Br)c1,0.0272 µM,0.136 µM
COc1ccc(-c2cc(/C=C/C(=O)c3ccc(OC)c(OC)c3)[nH]n2)cc1,1.42 µM,3.55 µM
CC1(Br)Cc2ccccc2C1=O (configuration not stated),–,57.2 µM
CN(C)C(=S)Sc1ccc([N+](=O)[O-])cc1[N+](=O)[O-],9.47 µM,22 µM
CCOC(=O)/C=C/c1ccc(C#Cc2ccccc2)cc1,44.9 µM,> 100 µM
COc1ccc(C(O)(CCC(C)C)C(CN2CCOCC2)c2ccc(Cl)cc2)cc1 (configuration not stated),10.9 µM,23.4 µM
